Source: EP0159396B1, “Carboxyalkyl peptide derivatives” (G.D. Searle & Co., priority 1984, dated 1985)

System: rat model of inflammatory arthritis
Assay: rat model of inflammatory arthritis induced by Type II collagen (Trentham et al.)
Type: in vivo
Settings: arthritic rats' paws, test compound 100 mg/kg i.p. twice daily for 21 days, prednisolone 0.625 mg/kg b.i.d.
Protocol: The therapeutic effectiveness is assessed in the rat model of inflammatory arthritis described by Trentham et al. (1977). In this model, the arthritis, induced by an intradermal injection of Type II collagen, generally develops in both hind paws and the progression and severity of the lesion are monitored by physical measurements of the malleolar width and ankle extensibility.
The compound of example II in the present specification was administered by intraperitoneal injections at 100 mg/kg twice daily for 21 days commencing seven days after the injection of the disease.
Drugs (Example 1 or prednisolone) and vehicle were administered to groups of 10 rats each. Physical measurements on the rat paws were made weekly for four weeks and consisted of (a) the distance between the medial and lateral malleolus (malleolar width) and (b) the ankle extension which was measured by applying a standard force to the rat paw and measuring the angle formed between the flexor surface of the foot and tibia. Evidence of a therapeutic effect was denoted by a significant reduction in malleolar width and […] a significant increase in ankle extension. Both measurements were carried out on apparatus designed for the purpose. Area-under-the-curve data from these time course experiments was examined by non-parametric statistical analysis. The prednisolone standard was given at a dose of 0.625 mg/kg b.i.d. Prednisolone was chosen as a standard since steroids are known to be effective both clinically in Rheumatoid Arthritis and in animal models of arthritis.

[1] = experiment number 1, area-under-the-curve of weekly measurements over four weeks

Structure (SMILES) | MALLEOLAR WIDTH, […] FROM CONTROL [1] [%] | ANGLE EXTENSION, […] FROM CONTROL (experiment number 1) [%] | ANGLE EXTENSION, […] FROM CONTROL (experiment number 2) [%] | MALLEOLAR WIDTH, […] FROM CONTROL (experiment number 2) [%] | ANGLE EXTENSION, […] FROM CONTROL (experiment number 3) [%] | MALLEOLAR WIDTH, […] FROM CONTROL (experiment number 3) [%] | ANGLE EXTENSION, […] FROM CONTROL, MEAN (mean of experiments 1-3) [%] | MALLEOLAR WIDTH, […] FROM CONTROL, MEAN (mean of experiments 1-3) [%] | MALLEOLAR WIDTH, PERCENTAGE CHANGE FROM CONTROL [1] [%] | ANGLE EXTENSION, PERCENTAGE CHANGE FROM CONTROL (experiment number 1) [%] | ANGLE EXTENSION, PERCENTAGE CHANGE FROM CONTROL (experiment number 2) [%] | MALLEOLAR WIDTH, PERCENTAGE CHANGE FROM CONTROL (experiment number 2) [%] | ANGLE EXTENSION, PERCENTAGE CHANGE FROM CONTROL (experiment number 3) [%] | MALLEOLAR WIDTH, PERCENTAGE CHANGE FROM CONTROL (experiment number 3) [%] | ANGLE EXTENSION, PERCENTAGE CHANGE FROM CONTROL, MEAN (mean of experiments 1-3) [%] | MALLEOLAR WIDTH, PERCENTAGE CHANGE FROM CONTROL, MEAN (mean of experiments 1-3) [%]
C[C@]12C=CC(=O)C=C1CC[C@@H]1[C@@H]2[C@@H](O)C[C@@]2(C)[C@H]1CC[C@]2(O)C(=O)CO [Prednisolone] | 98 | 100 | 96 | 96 | 95 | 97 | 97 | 97 | – | – | – | – | – | – | – | –
CNC(=O)[C@H](Cc1ccc(OC)cc1)NC(=O)[C@H](CC(C)C)N[C@H](CCNC(=O)OCc1ccccc1)C(=O)O [Example 1, N-[3-N-(Benzyloxycarbonyl)amino-I-(R)-carboxypropyl]-L-leucyl-O-methyl-L-tyrosine N-Methylamide] | – | – | – | – | – | – | – | – | 65 | 66 | 39 | 43 | 39 | 41 | 48 | 50
